Measured values published in patent US20050187240A1, “Aaptamine and isoaaptamine and structural modifications thereof” (The Arizona Board of Regents, Acting for and on behalf of …, priority 2004, published 2005).
≈ marks a conversion by molar mass, not a printed value. Like-named read-outs stand apart in the source and are kept apart here. One block for each compound: values may come before it.

Tests used:
Neisseria gonorrhoeae = assay: Broth microdilution susceptibility assay, Neisseria gonorrhoeae; type: cell-based
PKC alpha [1] = target: T1, PKC alpha (Homo sapiens, UniProt P17252); assay: Inhibition of PKC catalytic activity (peptide substrate phosphorylation); type: biochemical; details: 30 μM compound; 1 μM phorbol 12-myristate 13-acetate, 100 μg/ml phospholipid; mean±SEM, three experiments; read-out: percent inhibition of PKC catalytic activity
Text: We further evaluated the ability of the derivatives to inhibit PKC catalytic activity. […] Inhibition by 10c was 19.5±7.6% and inhibition by 4, 5, and 9a, b, c was 6% or less (all values are mean±SEM, three experiments). […] In both cases, the inhibition curves were steeper than predicted for a competitive inhibitor, consistent with a complicated mechanism of action (Hill coefficients for 10a and 10b of 1.5±0.1 and 2.0±0.5, respectively).

colon KM 20L2 = assay: Cancer cell growth inhibition, colon KM 20L2; type: cell-based, human; details: Homo sapiens, colon KM 20L2
Text: (§1) Evaluation of demethyloxyaaptamine (3), aaptamine (1), isoaaptamine (2) and hystatin 1 (11) against the Arizona State University Cancer Research Institute's human tumor cell line panel (Table 1) and the NCI 60-cell line human tumor screen were undertaken. (Boyd, M. R., Cancer: Principles and Practices of Oncology Updates; DeVita, et al., Eds; Lippincott: Philadelphia, 1989, Vol. 10, No. 3, pp. 1-12; Boyd, et al., Drug Development Research 1995, 34, 91-109; Boyd, M. R., et al. Cytotoxic Anticancer Drugs: Models and Concepts for Drug Discovery and Development; Valeriote, A., et al., Eds, Kluwer Academic Publishers: Amsterdam, 1992, pp. 11-34.)
(§2) Biology The cancer cell growth inhibitory properties were examined using the murine P388 lymphocytic leukemia cell line and a selection of human cancer cell lines.
(§3) All of the synthetic products were evaluated against a minipanel of human cancer cell lines, the murine P388 lymphocytic leukemia cell line and a selection of microorganisms.

CNS SF-268 = assay: Cancer cell growth inhibition, CNS SF-268; type: cell-based, human; details: Homo sapiens, CNS SF-268
Procedure: as §2, §3

[2] = tested on: Stenotrophomonas maltophilia; assay: Broth microdilution susceptibility assay, Stenotrophomonas maltophilia; type: cell-based
Cryptococcus neoformans = assay: Broth microdilution susceptibility assay, Cryptococcus neoformans; type: cell-based
Micrococcus luteus = assay: Broth microdilution susceptibility assay, Micrococcus luteus; type: cell-based
prostrate DU-145 = assay: Cancer cell growth inhibition, prostate DU-145; type: cell-based, human; details: Homo sapiens
Procedure: as §2, §3

Candida albicans = assay: Broth microdilution susceptibility assay, Candida albicans; type: cell-based
lung NCI-H460 = assay: Cancer cell growth inhibition, lung NCI-H460; type: cell-based, human; details: Homo sapiens, lung NCI-H460
Text: as §1, §2, §3

PKC alpha [3] = target: T1, PKC alpha; assay: Inhibition of [3H]phorbol 12,13-dibutyrate binding to PKC alpha; details: 30 μM compound; read-out: inhibition of [3H]phorbol 12,13-dibutyrate binding to PKC alpha
Procedure: Isoaaptamine (2) and derivatives 4, 5, 7, 8, and 14-18 were evaluated as ligands for PKC, based on the initial report of activity for isoaaptamine (Patil, et al., PCT Int. Appl. WO 95/0584 March 1995). Activity was measured at 30 μM compound using inhibition of [^3H-20]phorbol 12,13-dibutyrate binding to PKC alpha as described previously (Kazanietz, M. G., et al., Molecular Pharmacol., 1993, 44, 298). Assays were carried out with triplicate measurements in either single or triplicate experiments, depending on the compound.
Compounds 4, 5, 9a-c, and 10a-d were evaluated as ligands for PKC, based on the initial report of activity for isoaaptamine. Activity was measured at 30 μM compound using inhibition of [20-^3H]phorbol 12,13-dibutyrate binding to PKC alpha as described previously (Kazanietz, M. G., et al., Characterization of Ligand and Substrate Specificity for the Calcium-Dependent and Calcium-Independent Protein Kinase C Isoenzymes, Molecular Pharmacol. 1993, 44, 298-307). Assays were carried out with triplicate measurement in either single or triplicate experiments, depending on the compound. Inhibition by 9a and 9b was 6.4% and 9.2%, respectively. That by 10a, 10b, and 10d was 11.8%, 12.6%, and 16.0%, respectively. That by other derivatives was 5% or less. We conclude that these compounds show only very weak activity as ligands for PKC.

Escherichia coli = assay: Broth microdilution susceptibility assay, Escherichia coli; type: cell-based
Enterococcus faecalis = assay: Broth microdilution susceptibility assay, Enterococcus faecalis; type: cell-based
Staphylococcus aureus = assay: Broth microdilution susceptibility assay, Staphylococcus aureus; type: cell-based
breast MCF-7 = assay: Cancer cell growth inhibition, breast MCF-7; type: cell-based, human; details: Homo sapiens, MCF7, breast MCF-7
Procedure: as §2, §3

Streptococcus pneumoniae = assay: Broth microdilution susceptibility assay, Streptococcus pneumoniae; type: cell-based
Enterobacter cloacae = assay: Broth microdilution susceptibility assay, Enterobacter cloacae; type: cell-based
pancreas BXPC-3 = assay: Cancer cell growth inhibition, pancreas BXPC-3; type: cell-based, human; details: Homo sapiens, pancreas BXPC-3
Procedure: as §2, §3

[4] = tested on: murine P388 lymphocytic leukemia cell line; assay: Cancer cell growth inhibition, murine P388 lymphocytic leukemia cell line; type: cell-based; details: Mus musculus
Text: as §1, §2, §3

CNS SF-295 = assay: Cancer cell growth inhibition, CNS SF-295; type: cell-based, human; details: Table 1
Text: (§4) (Boyd, M. R., Cancer: Principles and Practices of Oncology Updates; […], et al., Eds; Lippincott: Philadelphia, 1989, Vol. 10, No. 3, pp. 1-12; Boyd, et al., Drug Development Research 1995, 34, 91-109; Boyd, M. R., et al. Cytotoxic Anticancer Drugs: Models and Concepts for Drug Discovery and Development; Valeriote, A., et al., Eds, Kluwer Academic Publishers: Amsterdam, 1992, pp. 11-34.)

melanoma SK-MEL-5 = assay: Cancer cell growth inhibition, melanoma SK-MEL-5; type: cell-based, human; details: Table 1
Text: as §4

renal A498 = assay: Cancer cell growth inhibition, renal A498; type: cell-based, human; details: Table 1
Text: as §4

ovary OVCAR-3 = assay: Cancer cell growth inhibition, ovary OVCAR-3; type: cell-based, human; details: Table 1
Text: as §4

[5] = Table 4, read-out: Range of minimum inhibitory concentration
[6] = Table 3, read-out: Cancer cell growth inhibitory ED50
[7] = Table 5, read-out: Cancer Cell Line Results ED50
[8] = Table 1, read-out: Cancer Cell Line Results ED50

MIC (Neisseria gonorrhoeae; [5]): 64 µg/mL | inhibition at 30 µM (PKC alpha [1]): ≤ 6% | IC50 (colon KM 20L2; [6]): 3.9 µg/mL | IC50 (colon KM 20L2; [7]): 3.9 µg/mL | IC50 (CNS SF-268; [6]): 8.2 µg/mL | IC50 (CNS SF-268; [7]): 8.2 µg/mL | MIC ([2]; Table 4, Stenotrophomonas maltophil, read-out: Range of minimum inhibitory concentration): > 64 µg/mL | MIC (Cryptococcus neoformans; [5]): > 64 µg/mL | MIC (Micrococcus luteus; [5]): 64 µg/mL | IC50 (prostrate DU-145; DU-145, Table 5, prostate DRU-145, read-out: Cancer Cell Line Results ED50): 3.1 µg/mL | IC50 (prostrate DU-145; Table 3, prostrate DU-145, read-out: Cancer cell growth inhibitory ED50): 3.1 µg/mL | MIC (Candida albicans; [5]): > 64 µg/mL | IC50 (lung NCI-H460; [6]): 5.1 µg/mL | IC50 (lung NCI-H460; [7]): 5.1 µg/mL | inhibition at 30 µM (PKC alpha [3]): 9.2% | melting point: 235 to 237 °C (dec.) | MIC (Escherichia coli; [5]): > 64 µg/mL | MIC (Enterococcus faecalis; [5]): > 64 µg/mL | MIC (Staphylococcus aureus; [5]): > 64 µg/mL | IC50 (breast MCF-7; [6]): 8 µg/mL | IC50 (breast MCF-7; [7]): 8 µg/mL | MIC (Streptococcus pneumoniae; [5]): 64 µg/mL | MIC (Enterobacter cloacae; [5]): > 64 µg/mL | IC50 (pancreas BXPC-3; [6]): 4.2 µg/mL | IC50 (pancreas BXPC-3; [7]): 4.2 µg/mL | IC50 ([4]; P388, Table 3, leukemia P-388, read-out: Cancer cell growth inhibitory ED50): 2.2 µg/mL | IC50 ([4]; Table 5, leukemia P388, read-out: Cancer Cell Line Results ED50): 2.19 µg/mL
Structure (SMILES): COc1ccc(CN2C=Cc3cc(OC)c(OC)c4nccc2c34)cc1.Cl [Compound 9b, 8,9-Dimethoxy-4-(4-methoxy-benzyl)-4H-benzo[de][1,6]naphthyridine hydrochloride]
Range of minimum inhibitory concentration (Neisseria gonorrhoeae; Table 6): 64 µg/mL | Range of minimum inhibitory concentration ([2]; Table 6): * (no inhibition at 64 μg/mL) | Range of minimum inhibitory concentration (Cryptococcus neoformans; Table 6): * (no inhibition at 64 μg/mL) | Range of minimum inhibitory concentration (Micrococcus luteus; Table 6): 64 µg/mL | Range of minimum inhibitory concentration (Candida albicans; Table 6): * (no inhibition at 64 μg/mL) | Range of minimum inhibitory concentration (Escherichia coli; Table 6): * (no inhibition at 64 μg/mL) | Range of minimum inhibitory concentration (Enterococcus faecalis; Table 6): * (no inhibition at 64 μg/mL) | Range of minimum inhibitory concentration (Staphylococcus aureus; Table 6): * (no inhibition at 64 μg/mL) | Range of minimum inhibitory concentration (Streptococcus pneumoniae; Table 6): 64 µg/mL | Range of minimum inhibitory concentration (Enterobacter cloacae; Table 6): * (no inhibition at 64 μg/mL)

IC50 (colon KM 20L2; [8]): 3.6 µg/mL (≈ 15.8 µM) | IC50 (lung NCI-H460; [8]): 3.2 µg/mL (≈ 14 µM) | IC50 ([4]; Table 1, leukemia murine P388, read-out: Cancer Cell Line Results ED50): 3.6 µg/mL (≈ 15.8 µM)
Structure (SMILES): COc1cc2ccnc3c2c(c1OC)NC=C3 [Compound 1, aaptamine]
Cancer Cell Line Results ED50 (CNS SF-295): 4.10 µg/mL | Cancer Cell Line Results ED50 (melanoma SK-MEL-5): 4.30 µg/mL | Cancer Cell Line Results ED50 (renal A498): 3.20 µg/mL | Cancer Cell Line Results ED50 (ovary OVCAR-3): 4.90 µg/mL
